The target of one assay is T1, Human thrombin (Homo sapiens, UniProt P00734).
T1 construct: Thrombin (fIIa, the active form of prothrombin) is another serine protease; purchased Haematologic Technologies Inc
Kind of assay: thrombin protease inhibition assay (chromogenic substrate S-2238). Type of assay: biochemical. The conditions noted are these: 3 nM thrombin, 125 μM S-2238, 10 min pre-incubation, RT, read at 405 nm. On the procedure: The thrombin activity reported herein (e.g., Table A) was obtained as follows. […] Thrombin was assayed in buffer containing 0.05 M Tris (pH 7.4), 0.015 M NaCl and 0.01% PEG-8000. The final concentration of enzyme used was 3 nM thrombin. […] All assays were performed in 96-well microtiter plates at room temperature (RT). […] Inhibitor IC50 values were determined by adding test compound as ten point, three-fold serial dilutions in buffer solution, as known in the art. The plate was read at 10 minutes after substrate addition. The IC50 was calculated by plotting the percent (%) inhibition against compound concentration and fitting the data to a constrained four parameter sigmoidal curve, as known in the art.

The target in a further assay is T2, Human KLKB1 protein (Homo sapiens, UniProt P03952).
T2 construct: purchased Enzyme Research Labs
Nature of the assay: KLKB1 kallikrein protease inhibition assay (chromogenic substrate S-2302). Type of assay: biochemical. The settings on record: 3 nM KLKB1, 250 μM S-2302, 10 min pre-incubation, RT, read at 405 nm. On the procedure:
The KLKB1 kallikrein activity reported herein (e.g., Table A) was obtained as follows. Human KLKB1 protein was obtained from Enzyme Research Labs. The chromogenic substrate S-2302 was obtained from DiaPharma. KLKB1 was assayed in buffer containing 0.05 M Tris (pH 7.4), 0.01 M NaCl and 0.2% w/v PEG-8000. The final concentration of enzyme used was 3 nM KLKB1. The final concentration of substrate used was 250 μM S-2302 for KLKB1. All assays were performed in 96-well microtiter plates at room temperature (RT). […] The plate was read at 10 minutes after substrate addition. The IC50 was calculated by plotting the percent (%) inhibition against compound concentration and fitting the data to a constrained four parameter sigmoidal curve, as known in the art.

Another assay relates to malignant breast tumors. The conditions noted are these: treated mice, cited from earlier work.

T2 sequence (P03952 391-638 limits assumed): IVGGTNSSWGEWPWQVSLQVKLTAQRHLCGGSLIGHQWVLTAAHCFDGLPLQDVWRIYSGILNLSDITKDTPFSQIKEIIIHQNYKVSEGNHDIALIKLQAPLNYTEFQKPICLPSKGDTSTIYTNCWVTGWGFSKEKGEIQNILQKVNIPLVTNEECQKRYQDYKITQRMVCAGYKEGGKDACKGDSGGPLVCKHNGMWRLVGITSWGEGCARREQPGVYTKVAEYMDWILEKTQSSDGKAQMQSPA
T2 sequence (P03952 20-390 partner limits assumed): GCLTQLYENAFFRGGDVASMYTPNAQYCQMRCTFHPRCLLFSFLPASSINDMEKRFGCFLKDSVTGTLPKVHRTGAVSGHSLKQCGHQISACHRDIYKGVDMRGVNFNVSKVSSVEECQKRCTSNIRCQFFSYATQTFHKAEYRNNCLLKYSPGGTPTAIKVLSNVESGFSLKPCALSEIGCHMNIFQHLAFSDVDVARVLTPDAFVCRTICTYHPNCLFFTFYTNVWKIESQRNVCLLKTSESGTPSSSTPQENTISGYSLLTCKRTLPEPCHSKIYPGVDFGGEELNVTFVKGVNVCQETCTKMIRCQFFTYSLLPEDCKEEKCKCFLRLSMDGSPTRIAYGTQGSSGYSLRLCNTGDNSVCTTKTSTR

Consider `O=C(Cn1ccc(-c2cc(NCc3ccc(Cl)s3)n(C(=O)c3ccsc3)n2)cc1=O)N1CCOCC1` [Entry 26, 4-(5-[(5-chlorothiophen-2-yl)methyl]amino-1-(thiophene-3-carbonyl)-1H-pyrazol-3-yl)-1-[2-(morpholin-4-yl)-2-oxoethyl]-1,2-dihydropyridin-2-one], for which the IC50 against Human thrombin is 100 to 1000 nM; at Human KLKB1 protein, 1000 to 10000 nM.

As for `O=C(c1ccoc1)n1nc(-c2ccn(Cc3cccnc3)c(=O)c2)cc1NCc1ccc(Cl)s1` [Entry 19, 4-(5-[(5-chlorothiophen-2-yl)methyl]amino-1-(furan-3-carbonyl)-1H-pyrazol-3-yl)-1-(pyridin-3-ylmethyl)-1,2-dihydropyridin-2-one], the IC50 at Human thrombin and at Human KLKB1 protein was under 100 nM each time.

As for `O=c1cc(-c2cc(NCc3ccc(Cl)s3)[nH]n2)cc[nH]1` [Entry 29, 4-(5-[(5-chlorothiophen-2-yl)methyl]amino-1H-pyrazol-3-yl)-1,2-dihydropyridin-2-one], the IC50 on Human thrombin and against Human KLKB1 protein was over 100000 nM each time.

For the compound `O=C(c1ccoc1)n1nc(-c2ccn(CCN3CCOCC3)c(=O)c2)cc1NCc1ccc(Cl)s1` [Entry 21, 4-(5-[(5-chlorothiophen-2-yl)methyl]amino-1-(furan-3-carbonyl)-1H-pyrazol-3-yl)-1-[2-(morpholin-4-yl)ethyl]-1,2-dihydropyridin-2-one], the IC50 is under 100 nM against Human thrombin and 100 to 1000 nM at Human KLKB1 protein.

For the compound `COc1ccccc1C(=O)n1nc(-c2c[nH]c(=O)c(Br)c2)cc1NCc1ccc(Cl)s1` [Entry 5, 3-bromo-5-(5-[(5-chlorothiophen-2-yl)methyl]amino-1-(2-methoxybenzoyl)-1H-pyrazol-3-yl)-1,2-dihydropyridin-2-one], the IC50 fell in the range of 100 to 1000 nM on Human thrombin and 1000 to 10000 nM against Human KLKB1 protein.

Take `CC(C)(C)C(=O)n1nc(-c2cc(N3CCOCC3)[nH]c(=O)c2)cc1NCc1ccc(Cl)s1` [Entry 13, 4-(5-[(5-chlorothiophen-2-yl)methyl]amino-1-(2,2-dimethylpropanoyl)-1H-pyrazol-3-yl)-6-(morpholin-4-yl)-1,2-dihydropyridin-2-one]: the figures for the IC50 against Human thrombin and against Human KLKB1 protein were 1000 to 10000 nM and over 100000 nM, respectively.

On to `O=C(c1ccsc1)n1nc(-c2cc(-c3ccccc3)[nH]c(=O)c2)cc1NCc1ccc(Cl)s1` [Entry 28, 4-(5-[(5-chlorothiophen-2-yl)methyl]amino-1-(thiophene-3-carbonyl)-1H-pyrazol-3-yl)-6-phenyl-1,2-dihydropyridin-2-one], for which the IC50 at Human thrombin and against Human KLKB1 protein was over 100000 nM each time.

On to `CCCCCCOC(=O)N=C(N)c1ccc(NCc2nc3cc(C(=O)N(CCC(=O)OCC)c4ccccn4)ccc3n2C)cc1` [dabigatran etexilate], for which, in the assay on malignant breast tumors (at 4 weeks), the “reduction in tumor volume” value is 50%. For the same compound, in the assay on malignant breast tumors, the “reduced tumor cells in the blood and liver micrometastases” value was 50-60%.

As to `COCCn1ccc(-c2cc(NCc3ccc(Cl)s3)n(C(=O)C(C)(C)C)n2)cc1=O` [Entry 9, 4-(5-[(5-chlorothiophen-2-yl)methyl]amino-1-(2,2-dimethylpropanoyl)-1H-pyrazol-3-yl)-1-(2-methoxyethyl)-1,2-dihydropyridin-2-one], the values for the IC50 against Human thrombin and against Human KLKB1 protein were under 100 nM and 1000 to 10000 nM, respectively.

`O=C(c1ccco1)n1nc(-c2cc(-c3cccnc3)[nH]c(=O)c2)cc1NCc1ccc(Cl)s1` [Entry 15, 4-(5-[(5-chlorothiophen-2-yl)methyl]amino-1-(furan-2-carbonyl)-1H-pyrazol-3-yl)-6-(pyridin-3-yl)-1,2-dihydropyridin-2-one]: the IC50 against Human thrombin was 1000 to 10000 nM; on Human KLKB1 protein, over 100000 nM.

Consider `CC(C)(C)C(=O)n1nc(-c2cc(Br)[nH]c(=O)c2)cc1NCc1ccc(Cl)s1` [Entry 48, 6-bromo-4-(5-[(5-chlorothiophen-2-yl)methyl]amino-1-(2,2-dimethylpropanoyl)-1H-pyrazol-3-yl)-1,2-dihydropyridin-2-one], for which the IC50 at Human thrombin is under 100 nM; against Human KLKB1 protein, 10000 to 100000 nM.

Regarding `O=c1[nH]cc(-c2cc(NCc3ccc(Cl)s3)[nH]n2)cc1Br` [Entry 6, 3-bromo-5-(5-[(5-chlorothiophen-2-yl)methyl]amino-1H-pyrazol-3-yl)-1,2-dihydropyridin-2-one], the IC50 against Human thrombin and against Human KLKB1 protein was over 100000 nM in each case.

Regarding `CC(C)(C)C(=O)n1nc(-c2cc[nH]c(=O)c2)cc1NCc1ccc(Cl)s1` [Entry 8, 4-(5-[(5-chlorothiophen-2-yl)methyl]amino-1-(2,2-dimethylpropanoyl)-1H-pyrazol-3-yl)-1,2-dihydropyridin-2-one], the IC50 was under 100 nM at Human thrombin and 1000 to 10000 nM against Human KLKB1 protein.

Consider `O=C(c1ccsc1)n1nc(-c2ccc(=O)[nH]c2)cc1NCc1ccc(Cl)s1` [Entry 37, 5-(5-[(5-chlorothiophen-2-yl)methyl]amino-1-(thiophene-3-carbonyl)-1H-pyrazol-3-yl)-1,2-dihydropyridin-2-one], for which the IC50 against Human thrombin fell in the range of 100 to 1000 nM; against Human KLKB1 protein, 1000 to 10000 nM.

Turning to `O=c1ccc(-c2cc(NCc3ccc(Cl)s3)[nH]n2)c[nH]1` [Entry 38, 5-(5-[(5-chlorothiophen-2-yl)methyl]amino-1H-pyrazol-3-yl)-1,2-dihydropyridin-2-one], the IC50 at Human thrombin and at Human KLKB1 protein was over 100000 nM each time.

For `COCCn1ccc(-c2cc(NCc3ccc(Cl)s3)n(C(=O)c3ccsc3)n2)cc1=O` [Entry 23, 4-(5-[(5-chlorothiophen-2-yl)methyl]amino-1-(thiophene-3-carbonyl)-1H-pyrazol-3-yl)-1-(2-methoxyethyl)-1,2-dihydropyridin-2-one], the IC50 against Human thrombin was under 100 nM; against Human KLKB1 protein, 100 to 1000 nM.

Regarding `O=C(Cn1ccc(-c2cc(NCc3ccc(Cl)s3)n(C(=O)c3ccoc3)n2)cc1=O)N1CCOCC1` [Entry 20, 4-(5-[(5-chlorothiophen-2-yl)methyl]amino-1-(furan-3-carbonyl)-1H-pyrazol-3-yl)-1-[2-(morpholin-4-yl)-2-oxoethyl]-1,2-dihydropyridin-2-one], the IC50 at Human thrombin was 100 to 1000 nM; against Human KLKB1 protein, 1000 to 10000 nM.

As to `CC(C)(C)C(=O)n1nc(-c2cc(N3CCOCC3)c[nH]c2=O)cc1NCc1ccc(Cl)s1` [Entry 1, 3-(5-[(5-chlorothiophen-2-yl)methyl]amino-1-(2,2-dimethylpropanoyl)-1H-pyrazol-3-yl)-5-(morpholin-4-yl)-1,2-dihydropyridin-2-one], the values for the IC50 on Human thrombin and against Human KLKB1 protein were under 100 nM and 1000 to 10000 nM, respectively.

Turning to `CC(C)(C)C(=O)n1nc(-c2ccn(Cc3cccnc3)c(=O)c2)cc1NCc1ccc(Cl)s1` [Entry 11, 4-(5-[(5-chlorothiophen-2-yl)methyl]amino-1-(2,2-dimethylpropanoyl)-1H-pyrazol-3-yl)-1-(pyridin-3-ylmethyl)-1,2-dihydropyridin-2-one], the IC50 was under 100 nM on Human thrombin and 100 to 1000 nM on Human KLKB1 protein.

In the case of `O=C(c1ccoc1)n1nc(-c2ccn(Cc3ccccn3)c(=O)c2)cc1NCc1ccc(Cl)s1` [Entry 18, 4-(5-[(5-chlorothiophen-2-yl)methyl]amino-1-(furan-3-carbonyl)-1H-pyrazol-3-yl)-1-(pyridin-2-ylmethyl)-1,2-dihydropyridin-2-one], the IC50 on Human thrombin was under 100 nM; against Human KLKB1 protein, 100 to 1000 nM.
